Reference: patent US12421222B2 (AUGUSTINE THERAPEUTICS, priority 2021, dated 2025)

System: acetylated tubulin (Lys40) in HeLa cells
Assay: Acetylated α-tubulin measurement in vitro (immunocytochemistry)
Type: cell-based
Conditions: Homo sapiens, 6 hours incubation, acetylated tubulin (Lys40) by immunocytochemistry, read-out: IC50 (Tubulin deacetylation)
Description: HeLa cells were cultured in UltraCulture serum-free medium (Lonza) supplemented with 2 mM glutamine (Lonza). Assays were performed at 96-well or 384-well format, differences in assay protocols are detailed in Table 6. Cells per well were plated and incubated overnight at 37° C. overnight in a humidified atmosphere containing 5% CO2. Cell density and seeding volumes are detailed in Table 6. Compounds (dissolved in 100% DMSO) or DMSO (vehicle) were added manually by diluting them in culture medium at 10× final assay concentration and adding 10 μL to cells (96-well protocol). Alternatively, 50 nL compound was added directly to the cell culture using the Echo650 (Labcyte) (384-well protocol). In this assay, the final assay concentration of DMSO is 0.1%-0.4%. Trichostatin A (TSA) was used as a positive control. Cells were incubated with compounds at 37° C. in a humidified atmosphere containing 5% CO2 for 6 hours. Levels of acetylated tubulin (Lys40) were assessed by immunocytochemistry using target-specific antibodies. Cells were fixed with 4% PFA at RT as detailed in Table 6. After 2-3 wash steps with PBS, cells were permeabilized with 0.5% Triton in PBS at RT for 10 minutes followed by 1-2 washes with PBS. To avoid non-specific antibody staining, cells were blocked with 3% BSA in PBS at room temperature for 1 hour. […] Cells were washed 2-3 times with PBS and labelled for 1 h at RT with goat anti-mouse conjugated with Alexa 647 (Thermofisher) and goat anti-rabbit conjugated with Alexa 555 (Thermofisher) secondary antibodies, diluted in 1% BSA to a final concentration of 1:1000. Simultaneously, nuclei were stained with 1:10000-1:15000 Hoechst (Thermofisher). Incubation time and temperature of the primary antibodies are detailed in Table 6. Cells were washed 2-3 times with PBS and they were imaged with the Operetta CLS or Opera Phenix (PerkinElmer). Imaging is further detailed in Table 6. For imaging analysis, the Harmony analysis software (PerkinElmer) was used. Cytoplasmic (defined by total α-tubulin staining) intensities per well were used for α-tubulin (acetylated and total) quantification. Intensities were measured per cell and then averaged per well. Mean intensity levels of acetylated tubulin were normalized to the mean intensity levels of total tubulin. The changes in acetylated tubulin were normalized for each plate using GraphPad Prism software: tubulin acetylation in vehicle (DMSO)-treated cells were set to 0% while tubulin acetylation in TSA-treated cells were set to 100%. EC50 values were calculated using the log(inhibitor) vs. response—Variable slope (four parameters) nonlinear regression in GraphPad Prism software.

IC50 [nM] | Compound
≤ 100 | O=C(CO)NCc1ccc(C(=O)CSc2nc(C(F)(F)F)nc3nn(C4CC4)cc23)s1 [Example 79, N-((5-(2-((2-cyclopropyl-6-(trifluoromethyl)-2H-pyrazolo[3,4-d]pyrimidin-4-yl)thio)acetyl)thiophen-2-yl)methyl)-2-hydroxyacetamide]
100 to 500 | COc1ccc2nc(C(F)(F)F)nc(SCC(=O)c3ccc(CNC(=O)CO)s3)c2c1 [Example 80, 2-hydroxy-N-((5-(2-((6-methoxy-2-(trifluoromethyl)quinazolin-4-yl)thio)acetyl)thiophen-2-yl)methyl)acetamide]
100 to 500 | Cc1nc(SCC(=O)c2ccc(CNC(=O)CO)s2)c2cc(N3CCOCC3)ccc2n1 [Example 81, 2-hydroxy-N-((5-(2-((2-methyl-6-morpholinoquinazolin-4-yl)thio)acetyl)thiophen-2-yl)methyl)acetamide]
≤ 100 | Cc1nc(SCC(=O)c2ccc(CNC(=O)CO)s2)c2cc(N3CCCCC3)ccc2n1 [Example 82, 2-hydroxy-N-((5-(2-((2-methyl-6-(piperidin-1-yl)quinazolin-4-yl)thio)acetyl)thiophen-2-yl)methyl)acetamide]
≤ 100 | Cc1nc(SCC(=O)c2ccc(CNC(=O)CO)s2)c2cc(N3CCCOCC3)ccc2n1 [Example 83, 2-hydroxy-N-((5-(2-((2-methyl-6-(1,4-oxazepan-4-yl)quinazolin-4-yl)thio)acetyl)thiophen-2-yl)methyl)acetamide]
≤ 100 | Cc1nc(SCC(=O)c2ccc(CNC(=O)CO)s2)c2cc(N3CCC(F)(F)C3)ccc2n1 [Example 84, N-((5-(2-((6-(3,3-difluoropyrrolidin-1-yl)-2-methylquinazolin-4-yl)thio)acetyl)thiophen-2-yl)methyl)-2-hydroxyacetamide]
≤ 100 | Cc1nc(SCC(=O)c2ccc(CNC(=O)CO)s2)c2cc(N3CCN(C)CC3)ccc2n1 [Example 85, 2-hydroxy-N-((5-(2-((2-methyl-6-(4-methylpiperazin-1-yl)quinazolin-4-yl)thio)acetyl)thiophen-2-yl)methyl)acetamide]
1000 to 3330 | Cn1ncc2c(SCC(=O)c3ccc(C4CCN(C(=O)CO)C4)s3)ncnc21 (stereo not shown) [Example 86, 2-hydroxy-1-(3-(5-(2-((1-methyl-1H-pyrazolo[3,4-d]pyrimidin-4-yl)thio)acetyl)thiophen-2-yl)157yrrolidine-1-yl)ethan-1-one]
1000 to 3330 | Cn1ncc2c(SCC(=O)c3ccc(CNS(C)(=O)=O)s3)ncnc21 [Example 87]
> 3330 | CN(Cc1ccc(C(=O)CSc2ncnc3c2cnn3C)s1)S(=O)(=O)C1CC1 [Example 91, N-methyl-N-((5-(2-((1-methyl-1H-pyrazolo[3,4-d]pyrimidin-4-yl)thio)acetyl)thiophen-2-yl)methyl)cyclopropanesulfonamide]
500 to 1000 | CS(=O)(=O)N1CCC(c2ccc(C(=O)CSc3nc(C(F)(F)F)nc4ccccc34)s2)C1 (stereo not shown) [Example 95, 1-(5-(1-(methylsulfonyl)161yrrolidine-3-yl)thiophen-2-yl)-2-((2-(trifluoromethyl)quinazolin-4-yl)thio)ethanone]
1000 to 3330 | Cc1nc(SCC(=O)c2ccc(CNS(C)(=O)=O)s2)c2ccccc2n1 [Example 97, N-((5-(2-((2-methylquinazolin-4-yl)thio)acetyl)thiophen-2-yl)methyl)methanesulfonamide]
1000 to 3330 | CS(=O)(=O)NCCc1ccc(C(=O)CSc2nc(C(F)(F)F)nc3ccccc23)s1 [Example 98, N-(2-(5-(2-((2-(trifluoromethyl)quinazolin-4-yl)thio)acetyl)thiophen-2-yl)ethyl)methanesulfonamide]
100 to 500 | Cc1nc(SCC(=O)c2ccc(CNC(=O)CO)s2)c2cc(C3CC3)ccc2n1 [Example 106, N-((5-(2-((6-cyclopropyl-2-methylquinazolin-4-yl)thio)acetyl)thiophen-2-yl)methyl)-2-hydroxyacetamide]
100 to 500 | Cc1cc2nc(C(F)(F)F)nc(SCC(=O)c3ccc(CNC(=O)CO)s3)n2n1 [Example 107, 2-hydroxy-N-((5-(2-((7-methyl-2-(trifluoromethyl)pyrazolo[1,5-a][1,3,5]triazin-4-yl)thio)acetyl)thiophen-2-yl)methyl)acetamide]
100 to 500 | COc1cc(F)c2nc(C)nc(SCC(=O)c3ccc(CNC(=O)CO)s3)c2c1 [Example 108, N-((5-(2-((8-fluoro-6-methoxy-2-methylquinazolin-4-yl)thio)acetyl)thiophen-2-yl)methyl)-2-hydroxyacetamide]
100 to 500 | COc1ccc2nc(C)nc(SCC(=O)c3ccc(CN(C)C(=O)CO)s3)c2c1 [Example 109, 2-hydroxy-N-((5-(2-((6-methoxy-2-methylquinazolin-4-yl)thio)acetyl)thiophen-2-yl)methyl)-N-methylacetamide]
≤ 100 | Cc1nc(SCC(=O)c2ccc(CNC(=O)C3CC3(F)F)s2)c2cccnc2n1 (stereo not shown) [Example 110, 2,2-difluoro-N-((5-(2-((2-methylpyrido[2,3-d]pyrimidin-4-yl)thio)acetyl)thiophen-2-yl)methyl)cyclopropane-1-carboxamide]
100 to 500 | Cn1cc2c(SCC(=O)c3ccc(CNC(=O)C4CC4(F)F)s3)nc(C(F)(F)F)nc2n1 (stereo not shown) [Example 111, 2,2-difluoro-N-((5-(2-((2-methyl-6-(trifluoromethyl)-2H-pyrazolo[3,4-d]pyrimidin-4-yl)thio)acetyl)thiophen-2-yl)methyl)cyclopropane-1-carboxamide]
100 to 500 | O=C(CO)NCc1ccc(C(=O)CSc2nc(C(F)(F)F)nc3cc(C4CC4)nn23)s1 [Example 112, N-((5-(2-((7-cyclopropyl-2-(trifluoromethyl)pyrazolo[1,5-a][1,3,5]triazin-4-yl)thio)acetyl)thiophen-2-yl)methyl)-2-hydroxyacetamide]
≤ 100 | O=C(CO)NCc1ccc(C(=O)CSc2nc(C(F)(F)F)nc3ncccc23)s1 [Example 113, 2-hydroxy-N-((5-(2-((2-(trifluoromethyl)pyrido[2,3-d]pyrimidin-4-yl)thio)acetyl)thiophen-2-yl)methyl)acetamide]
≤ 100 | O=C(CSc1nc(C(F)(F)F)nc2ncccc12)c1ccc(CNC(=O)C2CC2(F)F)s1 (stereo not shown) [Example 114, 2,2-difluoro-N-((5-(2-((2-(trifluoromethyl)pyrido[2,3-d]pyrimidin-4-yl)thio)acetyl)thiophen-2-yl)methyl)cyclopropane-1-carboxamide]
500 to 1000 | COc1ccc2nc(C)nc(SCC(=O)c3ccc(CCN4CCC(O)C4=O)s3)c2c1 (stereo not shown) [Example 115, 3-hydroxy-1-(2-(5-(2-((6-methoxy-2-methylquinazolin-4-yl)thio)acetyl)thiophen-2-yl)ethyl)pyrrolidin-2-one]
100 to 500 | CN(Cc1ccc(C(=O)CSc2nc(C(F)(F)F)nc3nn(C)cc23)s1)C(=O)CO [Example 116, 2-hydroxy-N-methyl-N-((5-(2-((2-methyl-6-(trifluoromethyl)-2H-pyrazolo[3,4-d]pyrimidin-4-yl)thio)acetyl)thiophen-2-yl)methyl)acetamide]
≤ 100 | O=C(CO)NCc1ccc(C(=O)CSc2nc3ccc(C(F)(F)F)nc3o2)s1 [Example 117, 2-hydroxy-N-((5-(2-((5-(trifluoromethyl)oxazolo[5,4-b]157yrrolid-2-yl)thio)acetyl)thiophen-2-yl)methyl)acetamide]
